{
  "source": "patent US9211310B2",
  "about": "“Use of a Chinese medicine composition in preparing medicaments for treating secondary prevention of myocardial infarction” (TASLY PHARMACEUTICAL GROUP CO., LTD, priority 2010, dated 2015)",
  "system": "patients after acute myocardial infarction",
  "assay": "Angina pectoris score, total and single (frequency/attack times, duration, pain degree, dose of nitroglycerin), same clinical trial",
  "type": "in vivo, human",
  "design": "total angina pectoris score, Md / total angina pectoris score, Mean: scale not given here",
  "conditions": "for change of attack times score, patients (%): Follow-up baseline; for attack times score, patients (%): Follow-up",
  "excerpt": "In order to better understand the present invention, a multi-center, randomized, double-blind, double-dummy and positive drug controlled trial had been conducted. 3508 patients who were in accordance with the diagnostic standards of AMI for 28 days to 2 years and differentiated as Qi deficiency and blood stagnation syndrome by TCM were studied. 0.5 g Chinese medicine composition prepared by the method of EXAMPLE 1 (Coded as QSYQ) was administrated half an hour after meal, 3 times per day. Aspirine was used as a positive drug. The patients were treated for 1 year and observed for 6 months.\nThey included the overall survival time, angina pectoris score, TCM symptom score and life quality score, where angina pectoris score, TCM symptom score and life quality score were evaluated at randomization, in 1st, 3rd, 6th, 9th, 12th month after treatment and 18th month after follow-up.\nTotal angina pectoris score was described on every observation period and the change of observation in comparison with baseline. T-test or Wilcoxon rank sum test were used for inter-group comparison. Grade of total score was evaluated on every observation and Wilcoxon rank sum test was used for inter-group comparison. T-test and Pairing signed rank sum test were used for analyzing the change of total score on every observation between groups in comparison with the baseline.\nSingle angina pectoris score was depicted on every observation time-point and the change of observation in comparison with baseline. Wilcoxon rank sum test was used for inter-group comparison. Pairing signed rank sum test was used for analyzing the change of total score on every observation between groups in comparison with the baseline.\nTotal angina pectoris score was described on every observation period and the change of observation in comparison with the baseline. T-test or Wilcoxon rank sum test were used for inter-group comparison. Grade of total score was evaluated on every observation and Wilcoxon rank sum test was used for inter-group comparison. T-test and Pairing signed rank sum test were used for analyzing the change of total score on every observation between groups in comparison with the baseline.\nSingle angina pectoris score was described on every observation time-point and the change of observation in comparison with baseline. Wilcoxon rank sum test was used for inter-group comparison. Pairing signed rank sum test was used for analyzing the change of total score on every observation between groups in comparison with the baseline.",
  "key": {"[1]": {"conditions": "PP, 1 month after treatment-baseline"}, "[2]": {"conditions": "PP, 3 months after treatment-baseline"}},
  "data": [
    {"smiles": "CC(=O)Oc1ccccc1C(=O)O", "note": "[Control group, aspirine]", "values": [
      {"measurement": "change of attack times score, patients (%)", "setting": "change −4, FAS", "value": "(3.60%)"},
      {"measurement": "change of attack times score, patients (%)", "setting": "change −4, PP", "value": "(3.69%)"},
      {"measurement": "change of attack times score, patients (%)", "setting": "change −5, FAS", "value": "(0.21%)"},
      {"measurement": "change of attack times score, patients (%)", "setting": "change −5, PP", "value": "(0.21%)"},
      {"measurement": "change of attack times score, patients (%)", "setting": "change −6, FAS", "value": "(0.42%)"},
      {"measurement": "change of attack times score, patients (%)", "setting": "change −6, PP", "value": "(0.43%)"},
      {"measurement": "attack times score, patients (%)", "setting": "score 0, FAS", "value": "(53.64%)"},
      {"measurement": "attack times score, patients (%)", "setting": "score 0, PP", "value": "(53.48%)"},
      {"measurement": "attack times score, patients (%)", "setting": "score 1, FAS", "value": "(22.80%)"},
      {"measurement": "attack times score, patients (%)", "setting": "score 1, PP", "value": "(22.87%)"},
      {"measurement": "attack times score, patients (%)", "setting": "score 2, FAS", "value": "(22.94%)"},
      {"measurement": "attack times score, patients (%)", "setting": "score 2, PP", "value": "(23.01%)"},
      {"measurement": "attack times score, patients (%)", "setting": "score 4, FAS", "value": "(0.62%)"},
      {"measurement": "attack times score, patients (%)", "setting": "score 4, PP", "value": "(0.64%)"},
      {"measurement": "distribution of total angina pectoris score: Medium, number of patients", "setting": "PP, 1 month after treatment", "value": 434},
      {"measurement": "distribution of total angina pectoris score: Medium, percentage of patients", "setting": "PP, 1 month after treatment", "value": "(29.21%)"},
      {"measurement": "distribution of total angina pectoris score: Mild, number of patients", "setting": "PP, 1 month after treatment", "value": 1030},
      {"measurement": "distribution of total angina pectoris score: Mild, percentage of patients", "setting": "PP, 1 month after treatment", "value": "(69.31%)"},
      {"measurement": "distribution of total angina pectoris score: Severe, number of patients", "setting": "PP, 1 month after treatment", "value": 22},
      {"measurement": "distribution of total angina pectoris score: Severe, percentage of patients", "setting": "PP, 1 month after treatment", "value": "(1.48%)"},
      {"measurement": "patients with dose of nitroglycerin score 0 (%)", "setting": "PP, 1 month after treatment", "value": "(59.61%)"},
      {"measurement": "patients with dose of nitroglycerin score 1 (%)", "setting": "PP, 1 month after treatment", "value": "(0.27%)"},
      {"measurement": "patients with dose of nitroglycerin score 2 (%)", "setting": "PP, 1 month after treatment", "value": "(29.40%)"},
      {"measurement": "patients with dose of nitroglycerin score 4 (%)", "setting": "PP, 1 month after treatment", "value": "(7.48%)"},
      {"measurement": "patients with dose of nitroglycerin score 6 (%)", "setting": "PP, 1 month after treatment", "value": "(3.24%)"},
      {"measurement": "total angina pectoris score, Md", "setting": "PP, 1 month after treatment", "value": 6.00},
      {"measurement": "total angina pectoris score, Mean", "setting": "PP, 1 month after treatment", "value": 5.95},
      {"measurement": "change of total angina pectoris score, Md", "setting": "[1]", "value": 0.00},
      {"measurement": "change of total angina pectoris score, Mean", "setting": "[1]", "value": "−1.22"},
      {"measurement": "patients with change of dose of nitroglycerin score 0 (%)", "setting": "[1]", "value": "(80.36%)"},
      {"measurement": "patients with change of dose of nitroglycerin score 1 (%)", "setting": "[1]", "value": "(0.20%)"},
      {"measurement": "patients with change of dose of nitroglycerin score 2 (%)", "setting": "[1]", "value": "(3.78%)"},
      {"measurement": "patients with change of dose of nitroglycerin score 4 (%)", "setting": "[1]", "value": "(1.01%)"},
      {"measurement": "patients with change of dose of nitroglycerin score 6 (%)", "setting": "[1]", "value": "(0.27%)"},
      {"measurement": "patients with change of dose of nitroglycerin score −2 (%)", "setting": "[1]", "value": "(11.54%)"},
      {"measurement": "patients with change of dose of nitroglycerin score −4 (%)", "setting": "[1]", "value": "(2.29%)"},
      {"measurement": "patients with change of dose of nitroglycerin score −6 (%)", "setting": "[1]", "value": "(0.54%)"},
      {"measurement": "distribution of total angina pectoris score: Medium, number of patients", "setting": "PP, 3 months after treatment", "value": 363},
      {"measurement": "distribution of total angina pectoris score: Medium, percentage of patients", "setting": "PP, 3 months after treatment", "value": "(24.64%)"},
      {"measurement": "distribution of total angina pectoris score: Mild, number of patients", "setting": "PP, 3 months after treatment", "value": 1098},
      {"measurement": "distribution of total angina pectoris score: Mild, percentage of patients", "setting": "PP, 3 months after treatment", "value": "(74.54%)"},
      {"measurement": "distribution of total angina pectoris score: Severe, number of patients", "setting": "PP, 3 months after treatment", "value": 12},
      {"measurement": "distribution of total angina pectoris score: Severe, percentage of patients", "setting": "PP, 3 months after treatment", "value": "(0.81%)"},
      {"measurement": "patients with dose of nitroglycerin score 0 (%)", "setting": "PP, 3 months after treatment", "value": "(62.95%)"},
      {"measurement": "patients with dose of nitroglycerin score 1 (%)", "setting": "PP, 3 months after treatment", "value": "(0.75%)"},
      {"measurement": "patients with dose of nitroglycerin score 2 (%)", "setting": "PP, 3 months after treatment", "value": "(29.10%)"},
      {"measurement": "patients with dose of nitroglycerin score 4 (%)", "setting": "PP, 3 months after treatment", "value": "(4.96%)"},
      {"measurement": "patients with dose of nitroglycerin score 6 (%)", "setting": "PP, 3 months after treatment", "value": "(2.24%)"},
      {"measurement": "total angina pectoris score, Md", "setting": "PP, 3 months after treatment", "value": 6.00},
      {"measurement": "total angina pectoris score, Mean", "setting": "PP, 3 months after treatment", "value": 5.32},
      {"measurement": "change of total angina pectoris score, Md", "setting": "[2]", "value": 0.00},
      {"measurement": "change of total angina pectoris score, Mean", "setting": "[2]", "value": "−1.85"},
      {"measurement": "patients with change of dose of nitroglycerin score 0 (%)", "setting": "[2]", "value": "(5.05%)"},
      {"measurement": "patients with change of dose of nitroglycerin score 1 (%)", "setting": "[2]", "value": "(0.20%)"},
      {"measurement": "patients with change of dose of nitroglycerin score 2 (%)", "setting": "[2]", "value": "(3.75%)"},
      {"measurement": "patients with change of dose of nitroglycerin score 4 (%)", "setting": "[2]", "value": "(0.55%)"},
      {"measurement": "patients with change of dose of nitroglycerin score 6 (%)", "setting": "[2]", "value": "(0.34%)"},
      {"measurement": "patients with change of dose of nitroglycerin score −1 (%)", "setting": "[2]", "value": "(0.34%)"},
      {"measurement": "patients with change of dose of nitroglycerin score −2 (%)", "setting": "[2]", "value": "(15.81%)"},
      {"measurement": "patients with change of dose of nitroglycerin score −4 (%)", "setting": "[2]", "value": "(3.14%)"},
      {"measurement": "patients with change of dose of nitroglycerin score −5 (%)", "setting": "[2]", "value": "(0.14%)"}
    ]}
  ]
}
